From PubChem BioAssay AID2060614 (Molecular Pharmacology Branch, DTP, NCI, 2025)
“And” between values parts separate entries of the source, which are not always exact repeats. Equal values may be shown once.

Tested on: 598228-144-R-J1-PDC complex spheroids, viability
Assay: Anticancer human tumor 598228-144-R-J1-PDC patient-derived serous endometrial adenocarcinoma cell line growth inhibition [CLK]
Conditions: for viability, T/C: stronger effect = lower value; active means viability on the fitted dose curve at most 10% of control; inactive means the rest
In short: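 Multi-cell-type spheroids combined patient-derived tumor cells with HUVEC endothelial cells and human mesenchymal stem cells. Paired agents were dosed in half-log steps down from about clinical Cmax, or from 10 microM where Cmax was unknown.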

[1] = curve of first compound, second compound 0.0316 µM
[2] = curve of first compound, second compound 0.1 µM
[3] = curve of first compound, second compound 0.316 µM
[4] = curve of first compound, second compound 1 µM
[5] = curve of first compound, second compound 3.16 µM
[6] = curve of first compound, second compound 10 µM
[7] = second compound 0.0316 µM, first compound 0.0316 µM
[8] = second compound 0.0316 µM, first compound 0.1 µM
[9] = second compound 0.1 µM, first compound 0.0316 µM
[10] = second compound 0.1 µM, first compound 0.1 µM
[11] = second compound 0.316 µM, first compound 0.0316 µM
[12] = second compound 0.316 µM, first compound 0.1 µM
[13] = second compound 1 µM, first compound 0.0316 µM
[14] = second compound 1 µM, first compound 0.1 µM
[15] = second compound 3.16 µM, first compound 0.0316 µM
[16] = second compound 3.16 µM, first compound 0.1 µM
[17] = second compound 10 µM, first compound 0.0316 µM
[18] = second compound 10 µM, first compound 0.1 µM
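Further: spheroids exposed to compounds for seven days before readout.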
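Wherever viability, T/C is given: 100% = DMSO vehicle control wells.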

COc1ccc([C@@H](O)c2cc(-c3ncnc4cc(N5CCOCC5)ccc34)c(F)cc2Cl)nn1
3550 nM and 4190 nM: IC50 (curve of compound)
inactive: viability, T/C (compound 0.0316 µM) 96.2% and 103% | viability, T/C (compound 0.1 µM) 93.5% and 88.3% | viability, T/C (compound 0.316 µM) 83.5% and 94.8% | viability, T/C (compound 1 µM) 63.7% and 76.9% | viability, T/C (compound 3.16 µM) 54.9% and 55.7% | viability, T/C (compound 10 µM) 34.8% and 31.7%

Cn1ncnc1[C@H]1c2n[nH]c(=O)c3cc(F)cc(c23)N[C@@H]1c1ccc(F)cc1 + CN1CCN(c2cc(C(=O)Nc3cc4cc(-c5cnn(C)c5)ccc4cn3)ccn2)CC1
active: viability, T/C (second compound 1 µM, first compound 0.000316 µM) 1.63% | viability, T/C (second compound 1 µM, first compound 0.001 µM) 1.39% | viability, T/C (second compound 1 µM, first compound 0.00316 µM) 1.72% | viability, T/C (second compound 1 µM, first compound 0.01 µM) 1.32% | viability, T/C [13] 3.04% | viability, T/C [14] 3.99% | viability, T/C (second compound 3.16 µM, first compound 0.000316 µM) 1.68% | viability, T/C (second compound 3.16 µM, first compound 0.001 µM) 3.14% | viability, T/C (second compound 3.16 µM, first compound 0.00316 µM) 1.85% | viability, T/C (second compound 3.16 µM, first compound 0.01 µM) 2.2% | viability, T/C [15] 1.94% | viability, T/C [16] 6.61% | viability, T/C (second compound 10 µM, first compound 0.000316 µM) 1.05% | viability, T/C (second compound 10 µM, first compound 0.001 µM) 2.11% | viability, T/C (second compound 10 µM, first compound 0.00316 µM) 1.83% | viability, T/C (second compound 10 µM, first compound 0.01 µM) 0.71% | viability, T/C [17] 3.42% | viability, T/C [18] 4.51%
< 0.316 nM: IC50 [3] | IC50 [4] | IC50 [5] | IC50 [6]
inactive: viability, T/C (second compound 0.0316 µM, first compound 0.000316 µM) 126% | viability, T/C (second compound 0.0316 µM, first compound 0.001 µM) 119% | viability, T/C (second compound 0.0316 µM, first compound 0.00316 µM) 107% | viability, T/C (second compound 0.0316 µM, first compound 0.01 µM) 113% | viability, T/C [7] 107% | viability, T/C [8] 122% | viability, T/C (second compound 0.1 µM, first compound 0.000316 µM) 117% | viability, T/C (second compound 0.1 µM, first compound 0.001 µM) 125% | viability, T/C (second compound 0.1 µM, first compound 0.00316 µM) 114% | viability, T/C (second compound 0.1 µM, first compound 0.01 µM) 116% | viability, T/C [9] 133% | viability, T/C [10] 129% | viability, T/C (second compound 0.316 µM, first compound 0.000316 µM) 19.3% | viability, T/C (second compound 0.316 µM, first compound 0.001 µM) 19.1% | viability, T/C (second compound 0.316 µM, first compound 0.00316 µM) 16.3% | viability, T/C (second compound 0.316 µM, first compound 0.01 µM) 19% | viability, T/C [11] 18.8% | viability, T/C [12] 16.7%
> 100 nM: IC50 [1] | IC50 [2]

COc1cccc2c1C(=O)c1c(O)c3c(c(O)c1C2=O)CC(O)(C(=O)CO)CC3OC1CC(N)C(O)C(C)O1 (stereo unspecified) + CN1CCN(c2cc(C(=O)Nc3cc4cc(-c5cnn(C)c5)ccc4cn3)ccn2)CC1
263 nM: IC50 [1]
224 nM: IC50 [2]
active: viability, T/C (second compound 0.0316 µM, first compound 1 µM) 7.36% | viability, T/C (second compound 0.0316 µM, first compound 3.16 µM) 0.34% | viability, T/C (second compound 0.0316 µM, first compound 10 µM) 0.49% | viability, T/C (second compound 0.1 µM, first compound 1 µM) 3.45% | viability, T/C (second compound 0.1 µM, first compound 3.16 µM) 0.34% | viability, T/C (second compound 0.1 µM, first compound 10 µM) 1.62% | viability, T/C [12] 14.6% | viability, T/C (second compound 0.316 µM, first compound 0.316 µM) 3.54% | viability, T/C (second compound 0.316 µM, first compound 1 µM) 0.66% | viability, T/C (second compound 0.316 µM, first compound 3.16 µM) 0.34% | viability, T/C (second compound 0.316 µM, first compound 10 µM) 2.75% | viability, T/C [13] 1.14% | viability, T/C [14] 0.59% | viability, T/C (second compound 1 µM, first compound 0.316 µM) 1% | viability, T/C (second compound 1 µM, first compound 1 µM) 0.68% | viability, T/C (second compound 1 µM, first compound 3.16 µM) 0.96% | viability, T/C (second compound 1 µM, first compound 10 µM) 2.88% | viability, T/C [15] 1.47% | viability, T/C [16] 3.06% | viability, T/C (second compound 3.16 µM, first compound 0.316 µM) 0.97% | viability, T/C (second compound 3.16 µM, first compound 1 µM) 0.79% | viability, T/C (second compound 3.16 µM, first compound 3.16 µM) 1.31% | viability, T/C (second compound 3.16 µM, first compound 10 µM) 4.32% | viability, T/C [17] 0.73% | viability, T/C [18] 0.59% | viability, T/C (second compound 10 µM, first compound 0.316 µM) 3.86% | viability, T/C (second compound 10 µM, first compound 1 µM) 0.35% | viability, T/C (second compound 10 µM, first compound 3.16 µM) 0.23% | viability, T/C (second compound 10 µM, first compound 10 µM) 3.87%
inactive: viability, T/C [7] 114% | viability, T/C [8] 116% | viability, T/C (second compound 0.0316 µM, first compound 0.316 µM) 37.5% | viability, T/C [9] 150% | viability, T/C [10] 109% | viability, T/C (second compound 0.1 µM, first compound 0.316 µM) 24.6% | viability, T/C [11] 14.6%
< 31.6 nM: IC50 [3] | IC50 [4] | IC50 [5] | IC50 [6]
